Source: the NIST ThermoML archive (doi:10.1016/j.tca.2015.02.004)
Several values for one entry are separate records, joined by “and”; a condition that tells them apart may be missing. Equal values may be shown once.

How the values were obtained:
[1] = Liquid, Diaphragm manometer
[2] = Boiling temperature at pressure P; settings: Liquid, Distillation

C[Si](C)(C)N[Si](C)(C)C [1,1,1,3,3,3-hexamethyldisilazane]
[1]
Settings	vapor or sublimation pressure [kPa]
290.8 K	1.51
290.9 K	1.54
292 K	1.68
293.5 K	1.73
301.1 K	2.71
301.5 K	2.68
311.4 K	4.25
312.4 K	4.36
320.2 K	5.93
321.2 K	6.6
329.7 K	9.72
330.9 K	10.21
331.8 K	10.3
340.1 K	14.79
341.1 K	15.35
349.8 K	20.68
352.7 K	23.41
360.3 K	30.3
360.5 K	31.34
370 K	42.85
371.8 K	45.32
382.2 K	59.76

C[Si](C)(C)NCc1ccccc1 [(benzylamino)trimethylsilane]
Settings	Boiling temperature at pressure P [°C]
[2], 2 kPa	98.00

C[Si](C)(C)c1ccccc1 [trimethylphenylsilane]
Settings	Boiling temperature at pressure P [°C]	vapor or sublimation pressure [kPa]
[1], 296.7 K	–	0.33
[1], 297.7 K	–	0.29
[1], 298.8 K	–	0.31
[1], 322.2 K	–	1.14
[1], 322.7 K	–	1.28
[1], 333.2 K	–	2.02
[1], 343.7 K	–	3.24
[1], 352.2 K	–	4.73
[1], 352.8 K	–	4.91
[1], 371.9 K	–	10.63
[1], 372.2 K	–	11.04
[1], 373.2 K	–	10.82
[1], 382.9 K	–	15.75
[1], 391 K	–	21.76
[1], 392.1 K	–	21.75
[1], 392.4 K	–	22.02
[1], 401.1 K	–	29.35
[2], 1.866 kPa	56.00	–

C[Si](C)(C)N(c1ccccc1)[Si](C)(C)C [N,N-bis(trimethylsilyl)aniline]
Settings	Boiling temperature at pressure P [°C]	vapor or sublimation pressure
[1], 321.8 K	–	0.15 kPa
[1], 322.1 K	–	0.2 kPa
[1], 330.7 K	–	0.29 kPa
[1], 331.2 K	–	0.24 kPa
[1], 331.4 K	–	0.26 kPa
[1], 341.9 K	–	0.36 kPa
[1], 351.2 K	–	0.59 kPa and 0.61 kPa
[1], 351.4 K	–	0.59 kPa
[1], 361.1 K	–	0.96 kPa
[1], 361.2 K	–	1 kPa
[1], 371.2 K	–	1.56 kPa
[1], 380.7 K	–	2.34 kPa
[1], 381.2 K	–	2.32 kPa
[1], 390.9 K	–	3.54 kPa
[1], 400.5 K	–	5.22 kPa
[1], 400.7 K	–	5.19 kPa
[1], 400.9 K	–	5.65 kPa
[1], 410.7 K	–	7.51 kPa
[1], 411 K	–	7.35 kPa
[1], 421.4 K	–	10.96 kPa
[1], 421.5 K	–	10.91 kPa
[1], 421.9 K	–	10.9 kPa
[1], 431.7 K	–	15.13 kPa
[1], 441.2 K	–	20.51 kPa
[1], 441.6 K	–	20.37 kPa
[1], 451.2 K	–	27.3 kPa
[2], 0.267 kPa	60.00	–

C[Si](C)(C)Nc1ccccc1 [trimethyl(phenylamino)silane]
Settings	Boiling temperature at pressure P [°C]	vapor or sublimation pressure [kPa]
[1], 311.6 K	–	0.2
[1], 312.8 K	–	0.24
[1], 332.5 K	–	0.65
[1], 350.9 K	–	1.64
[1], 371.8 K	–	3.76
[1], 372.1 K	–	3.79
[1], 390 K	–	7.38
[1], 391.4 K	–	7.86
[1], 391.6 K	–	7.85
[1], 410.6 K	–	14.88
[1], 411.6 K	–	15.98
[1], 421.7 K	–	21.19
[1], 422.7 K	–	22.43
[1], 431.8 K	–	28.53
[1], 432.7 K	–	30.61
[1], 446.1 K	–	43.07
[1], 452.1 K	–	52.87
[1], 455.2 K	–	55.6
[2], 0.4 kPa	56.00	–
